Experimental data published in patent US10131652B2, “Pyrimidinyloxy benzene derivatives as herbicides” (E. I. DU PONT DE NEMOURS AND COMPANY, priority 2014, dated 2018).

Key:
Type in all cases: in vivo
[1] = test system: barnyardgrass (Echinochloa crus-galli); assay: Test B pre-/postemergence plant response
Outline: (§1)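 Evaluation is visual, about 10 days after application, rating injury from 0 (none) to 100 (complete control) relative to untreated controls. Application was a preemergence soil spray on seeded pots or a postemergence spray on one- to two-leaf plants.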

corn (Zea mays) = assay: Test B pre-/postemergence plant response; settings: 0 to 100 scale, 0 no effect, 100 complete control
Outline: as §1

[2] = test system: giant foxtail (Setaria faberii); assay: Test B pre-/postemergence plant response
Outline: as §1

[3] = test system: pigweed (Amaranthus retroflexus); assay: Test B pre-/postemergence plant response
Outline: as §1

[4] = test system: wheat (Triticum aestivum); assay: Test B pre-/postemergence plant response; settings: 0 to 100 scale, 0 no effect, 100 complete control
Outline: as §1

[5] = test system: barnyardgrass (Echinochloa crus-galli); assay: Test C flooded paddy test plant response; settings: Flood, 250 g ai/ha; scale of 0 to 100 where 0 is no effect and 100 is complete control; 13 to 15 days
Outline: (§2)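 2-leaf plants; flood 3 cm, cpd into paddy water; greenhouse 13–15 d; visual score vs untreated, 0 = no effect, 100 = complete control; dash = no result.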

[6] = test system: ducksalad (Heteranthera limosa); assay: Test C flooded paddy test plant response; settings: Flood, 250 g ai/ha; scale of 0 to 100 where 0 is no effect and 100 is complete control; 13 to 15 days
Outline: as §2

rice (Oryza sativa) = assay: Test C flooded paddy test plant response; settings: Flood, 250 g ai/ha; scale of 0 to 100 where 0 is no effect and 100 is complete control; 13 to 15 days
Outline: as §2

[7] = test system: small-flower umbrella sedge (Cyperus difformis); assay: Test C flooded paddy test plant response; settings: Flood, 250 g ai/ha; scale of 0 to 100 where 0 is no effect and 100 is complete control; 13 to 15 days
Outline: as §2

[8] = test system: galium (catchweed bedstraw, Galium aparine); assay: Test D pre-/postemergence plant response; settings: Postemergence; for Galium plant response rating: scale 0 to 100 (0 no effect, 100 complete control); for Plant response rating, Galium: scale 0 to 100, 0 no effect, 100 complete control
Source text: (§3) Seeds of plant species selected from blackgrass (Alopecurus myosuroides), Italian ryegrass (Lolium multiflorum), winter wheat (Triticum aestivum), galium (catchweed bedstraw, Galium aparine), corn (Zea mays), large (Lg) crabgrass (Digitaria sanguinalis), giant foxtail (Setaria faberii), johnsongrass (Sorghum halepense), lambsquarters (Chenopodium album), morningglory (Ipomoea coccinea), yellow nutsedge (Cyperus esculentus), pigweed (Amaranthus retroflexus), ragweed (common ragweed, Ambrosia elatior), soybean (Glycine max), bamyardgrass (Echinochloa crus-galli), oilseed rape (Brassica napus), waterhemp (common waterhemp, Amaranthus rudis), and velvetleaf (Abutilon theophrasti) were planted into a blend of loam soil and sand and treated preemergence with test chemicals formulated in a non-phytotoxic solvent mixture which included a surfactant. At the same time, plants selected from these crop and weed species and also kochia (Kochia scoparia), wild oat (Avena fatua), and chickweed (common chickweed, Stellaria media) were planted in pots containing Redi-Earth® planting medium (Scotts Company, 14111 Scottslawn Road, Marysville, Ohio 43041) comprising spaghnum peat moss, vermiculite, wetting agent and starter nutrients and treated with postemergence applications of test chemicals formulated in the same manner. Plants ranged in height from 2 to 18 cm (1- to 4-leaf stage) for postemergence treatments. Treated plants and controls were maintained in a greenhouse for 13 to 15 days, after which time all species were compared to controls and visually evaluated. Plant response ratings, summarized in Table D, are based on a scale of 0 to 100 where 0 is no effect and 100 is complete control. A dash (-) response means no test result.

[9] = test system: johnsongrass (Sorghum halepense); assay: Test D pre-/postemergence plant response; settings: Postemergence; for Johnsongrass plant response rating: scale 0 to 100 (0 no effect, 100 complete control)
Source text: as §3

[10] = test system: oilseed rape (Brassica napus); assay: Test D pre-/postemergence plant response; settings: Postemergence; for Oilseed Rape plant response rating: scale 0 to 100 (0 no effect, 100 complete control); for Plant response rating, Oilseed Rape: scale 0 to 100, 0 no effect, 100 complete control
Source text: as §3

[11] = test system: ragweed (common ragweed, Ambrosia elatior); assay: Test D pre-/postemergence plant response; settings: Postemergence; for Ragweed plant response rating: scale 0 to 100 (0 no effect, 100 complete control); for Plant response rating, Ragweed: scale 0 to 100, 0 no effect, 100 complete control
Source text: as §3

[12] = test system: winter wheat (Triticum aestivum); assay: Test D pre-/postemergence plant response; settings: Postemergence; for Wheat plant response rating: scale 0 to 100 (0 no effect, 100 complete control); for Plant response rating, Wheat: scale 0 to 100, 0 no effect, 100 complete control
Source text: as §3

[13] = test system: yellow nutsedge (Cyperus esculentus); assay: Test D pre-/postemergence plant response; settings: Postemergence; for Nutsedge, Yellow plant response rating: scale 0 to 100 (0 no effect, 100 complete control); for Plant response rating, Nutsedge, Yellow: scale 0 to 100, 0 no effect, 100 complete control
Source text: as §3

[14] = 31 g ai/ha, Postemergence, 0 to 100 scale, 0 no effect, 100 complete control
[15] = 31 g ai/ha, Preemergence, 0 to 100 scale where 0 is no effect and 100 is complete control
[16] = 125 g ai/ha, postemergence, 0 to 100 scale, 0 no effect, 100 complete control
[17] = Preemergence, 125 g ai/ha, 0 to 100 scale where 0 is no effect and 100 is complete control

`FC(Cl)c1cc(-c2ccccc2Oc2ncc(Cl)cn2)no1` (stereo not drawn) [Compound 116] was tested, and the “Plant response rating, Barnyardgrass” value [1, 14] was 10, the “Plant response rating, Barnyardgrass” value [1, 15] was 0 and the “Plant response rating, Barnyardgrass” value [1, 16] was 30. For the same molecule, the “Plant response rating, Barnyardgrass” value [1, 17] was 30, the “Plant response rating, Corn” value (corn (Zea mays); 31 g ai/ha, Postemergence) was 20 and the “Plant response rating, Corn” value (corn (Zea mays); 125 g ai/ha, postemergence) was 40. The “Plant response rating, Foxtail, Giant” value [2, 14] was 20, the “Plant response rating, Foxtail, Giant” value [2, 15] was 40 and the “Plant response rating, Foxtail, Giant” value [2, 16] was 90. The “Plant response rating, Foxtail, Giant” value [2, 17] was 90, the “Plant response rating, Pigweed” value [3, 14] was 100 and the “Plant response rating, Pigweed” value [3, 15] was 70. For the same molecule, the “Plant response rating, Pigweed” value [3, 16] was 100, the “Plant response rating, Wheat” value ([4]; 31 g ai/ha, Postemergence) was 10 and the “Plant response rating, Wheat” value ([4]; 125 g ai/ha, postemergence) was 20. For the same molecule, the “Barnyardgrass plant response rating” value [5] was 0, the “Ducksalad plant response rating” value [6] was 95 and the “Rice plant response rating” value (rice (Oryza sativa)) was 30. For the same molecule, the “Sedge, Umbrella plant response rating” value [7] was 90, the “Galium plant response rating” value ([8]; 16 g ai/ha) was 60 and the “Galium plant response rating” value ([8]; 31 g ai/ha) was 60. The “Plant response rating, Galium” value ([8]; 62 g ai/ha) was 70, the “Plant response rating, Galium” value ([8]; 125 g ai/ha) was 90 and the “Johnsongrass plant response rating” value ([9]; 16 g ai/ha) was 10. For the same molecule, the “Johnsongrass plant response rating” value ([9]; 31 g ai/ha) was 20, the “Plant response rating, Johnsongrass” value ([9]; 62 g ai/ha, scale 0 to 100, 0 no effect, 100 complete control) was 20 and the “Oilseed Rape plant response rating” value ([10]; 16 g ai/ha) was 50. The “Oilseed Rape plant response rating” value ([10]; 31 g ai/ha) was 10, the “Plant response rating, Oilseed Rape” value ([10]; 62 g ai/ha) was 55 and the “Plant response rating, Oilseed Rape” value ([10]; 125 g ai/ha) was 70. For the same molecule, the “Ragweed plant response rating” value ([11]; 16 g ai/ha) was 40, the “Ragweed plant response rating” value ([11]; 31 g ai/ha) was 35 and the “Plant response rating, Ragweed” value ([11]; 62 g ai/ha) was 60. The “Plant response rating, Ragweed” value ([11]; 125 g ai/ha) was 75, the “Wheat plant response rating” value ([12]; 16 g ai/ha) was 70 and the “Wheat plant response rating” value ([12]; 31 g ai/ha) was 0. For the same molecule, the “Plant response rating, Wheat” value ([12]; 62 g ai/ha) was 5, the “Plant response rating, Wheat” value ([12]; 125 g ai/ha) was 5 and the “Nutsedge, Yellow plant response rating” value ([13]; 16 g ai/ha) was 5. The “Nutsedge, Yellow plant response rating” value ([13]; 31 g ai/ha) was 5, the “Plant response rating, Nutsedge, Yellow” value ([13]; 62 g ai/ha) was 10 and the “Plant response rating, Nutsedge, Yellow” value ([13]; 125 g ai/ha) was 25.
